Assay results published in ChEMBL document CHEMBL5038655, “Development of Novel Dihydrofuro[3,4-d]pyrimidine Derivatives as HIV-1 NNRTIs to Overcome the Highly Resistant Mutant Strains F227L/V106A and K103N/Y181C” (J Med Chem, 2022).
Values after ≈ are worked out from the molar mass of the structure shown.

What was measured:
[1] = tested on: Human immunodeficiency virus 1; assay: Antiviral activity against HIV-1 harboring reverse transcriptase Y188L mutant infected in human MT4 cells assessed as protection against virus-induced cytopathic effect incubated for 5 days by MTT assay; conditions: Human immunodeficiency virus 1, MT4, 120 h
[2] = Acute toxicity in Kunming mouse assessed as change in body weight at 2000 mg/kg, po measured for 7 days; assay type: organism-based; conditions: in vivo, time 7 day
[3] = Tmax in Sprague-Dawley rat at 2 mg/kg, iv measured upto 10 hrs by LC-MS/MS analysis; assay type: ADME, organism-based; conditions: in vivo
[4] = Aqueous solubility of the compound at pH 7.4 by HPLC analysis; assay type: physicochemical; conditions: buffer
[5] = tested on: Human immunodeficiency virus 1; assay: Antiviral activity against HIV1 L1001 infected in human MT4 cells assessed as protection against virus-induced cytopathic effect incubated for 5 days by MTT assay; assay type: functional, organism-based; conditions: Human immunodeficiency virus 1, L1001, MT4, 120 h
[6] = AUC(0 to infinity) in Sprague-Dawley rat at 10 mg/kg, po measured upto 12 hrs by LC-MS/MS analysis; assay type: ADME, organism-based; design: route oral, dose 10 mg/kg, time <=12; conditions: in vivo
[7] = AUC(0 to infinity) in Sprague-Dawley rat at 2 mg/kg, iv measured upto 10 hrs by LC-MS/MS analysis; assay type: ADME, organism-based; design: route intravenous, dose 2 mg/kg, time <=10; conditions: in vivo
[8] = tested on: Human immunodeficiency virus 1; assay: Potency index, ratio of rilpivirine EC50 to test compound EC50 for antiviral activity against HIV-1 harboring reverse transcriptase Y188L mutant infected in human MT4 cells assessed as protection against virus-induced cytopathic effect incubated for 5 days by MTT assay; assay type: functional; conditions: time 5 day
[9] = tested on: Human immunodeficiency virus 1; assay: Antiviral activity against HIV-1 harboring reverse transcriptase E138K mutant infected in human MT4 cells assessed as protection against virus-induced cytopathic effect incubated for 5 days by MTT assay; conditions: Human immunodeficiency virus 1, MT4, 120 h
[10] = Aqueous solubility of the compound at pH 7.0 by HPLC analysis; assay type: physicochemical; conditions: buffer
[11] = tested on: Human immunodeficiency virus 1; assay: Antiviral activity against HIV-1 harboring reverse transcriptase K103N mutant infected in human MT4 cells assessed as protection against virus-induced cytopathic effect incubated for 5 days by MTT assay; conditions: Human immunodeficiency virus 1, MT4, 120 h
[12] = AUC(0 to t) in Sprague-Dawley rat at 2 mg/kg, iv measured upto 10 hrs by LC-MS/MS analysis; assay type: ADME, organism-based; design: route intravenous, dose 2 mg/kg, time <=10; conditions: in vivo
[13] = Cmax in Sprague-Dawley rat at 10 mg/kg, po measured upto 12 hrs by LC-MS/MS analysis; assay type: ADME, organism-based; design: route oral, dose 10 mg/kg, time <=12; conditions: in vivo
[14] = Cmax in Sprague-Dawley rat at 2 mg/kg, iv measured upto 10 hrs by LC-MS/MS analysis; assay type: ADME, organism-based; design: route intravenous, dose 2 mg/kg, time <=10; conditions: in vivo
[15] = Tmax in Sprague-Dawley rat at 10 mg/kg, po measured upto 12 hrs by LC-MS/MS analysis; assay type: ADME, organism-based; conditions: in vivo
[16] = Selectivity index, ratio of CC50 for human MT4 cells to EC50 for antiviral activity against HIV-1 IIIB infected in human MT4 cells; assay type: toxicity, cell-based; conditions: MT4 cells (uninfected and infected with HIV-1 IIIB), read-out: Ratio CC50/EC50
[17] = Aqueous solubility of the compound at pH 2.0 by HPLC analysis; assay type: physicochemical; conditions: buffer
[18] = tested on: Human immunodeficiency virus 1; assay: Antiviral activity against HIV-1 IIIB harboring K103N/Y181C double mutant infected in human MT4 cells assessed as protection against virus-induced cytotoxicity incubated for 5 days by MTT assay; assay type: functional, organism-based; conditions: Human immunodeficiency virus 1, IIIB, MT4, 120 h
[19] = Cytotoxicity against human MT4 cells assessed as reduction in cell viability incubated for 5 days by MTT assay; assay type: toxicity, cell-based; conditions: time 5 day
[20] = Terminal half life in Sprague-Dawley rat at 10 mg/kg, po measured upto 12 hrs by LC-MS/MS analysis; assay type: ADME, organism-based; conditions: in vivo, read-out: beta t1/2 (converted)
[21] = Oral bioavailability in Sprague-Dawley rat at 10 mg/kg measured upto 12 hrs by LC-MS/MS analysis; assay type: ADME, organism-based; conditions: in vivo
[22] = AUC(0 to t) in Sprague-Dawley rat at 10 mg/kg, po measured upto 12 hrs by LC-MS/MS analysis; assay type: ADME, organism-based; design: route oral, dose 10 mg/kg, time <=12; conditions: in vivo
[23] = Clearance in Sprague-Dawley rat at 2 mg/kg, iv measured upto 10 hrs by LC-MS/MS analysis; assay type: ADME, organism-based; conditions: in vivo
[24] = tested on: Human immunodeficiency virus 1; assay: Potency index, ratio of rilpivirine EC50 to test compound EC50 for antiviral activity against HIV-1 harboring reverse transcriptase F227L/V106A mutant infected in human MT4 cells assessed as protection against virus-induced cytopathic effect incubated for 5 days by MTT assay; assay type: functional; conditions: time 5 day
[25] = tested on: Human immunodeficiency virus 1; assay: Antiviral activity against HIV-1 harboring reverse transcriptase F227L/V106A mutant infected in human MT4 cells assessed as protection against virus-induced cytopathic effect incubated for 5 days by MTT assay; conditions: Human immunodeficiency virus 1, MT4, 120 h
[26] = target: Human immunodeficiency virus type 1 reverse transcriptase (Human immunodeficiency virus 1, UniProt Q72547); assay: Inhibition of wild type HIV-1 reverse transcriptase using biotin-labelled dNTPs as substrate incubated for 2 hrs by ELISA
[27] = Selectivity index, ratio of CC50 for human MT4 cells to EC50 for antiviral activity against HIV-1 IIIB harboring K103N/Y181C double mutant infected in human MT4 cells; assay type: toxicity, cell-based; conditions: read-out: Ratio CC50/EC50
[28] = tested on: Human immunodeficiency virus 1; assay: Antiviral activity against HIV-1 harboring reverse transcriptase Y181C mutant infected in human MT4 cells assessed as protection against virus-induced cytopathic effect incubated for 5 days by MTT assay; conditions: Human immunodeficiency virus 1, MT4, 120 h
[29] = Terminal half life in Sprague-Dawley rat at 2 mg/kg, iv measured upto 10 hrs by LC-MS/MS analysis; assay type: ADME, organism-based; conditions: in vivo, read-out: beta t1/2 (converted)
[30] = tested on: Human immunodeficiency virus 1; assay: Antiviral activity against HIV-1 IIIB infected in human MT4 cells assessed as protection against virus-induced cytotoxicity incubated for 5 days by MTT assay; assay type: functional, organism-based; conditions: Human immunodeficiency virus 1, IIIB, MT4, 120 h

Cc1cc(/C=C/C#N)cc(C)c1Oc1nc(NC2CCN(Cc3ccc(C(N)=O)cc3)CC2)nc2c1COC2
EC50 [1]: 18 nM
Activity [2]: Non-Toxic
Tmax [3]: 1.98 min
solubility [4]: 5.24 µg/mL (≈ 9.99 µM)
EC50 [5]: 3.9 nM
AUC(0-inf) [6]: 809 ng·h/mL
AUC(0-inf) [7]: 503 ng·h/mL
Ratio EC50 [8]: 4.4
EC50 [9]: 6.76 nM
solubility [10]: 25.4 µg/mL (≈ 48.4 µM)
EC50 [11]: 2.14 nM
AUC(0-t) at 10 h [12]: 409 ng·h/mL
Cmax [13]: 250 ng/mL
Cmax [14]: 480 ng/mL
Tmax [15]: 2.12 h
selectivity ratio [16]: 8450
solubility [17]: 187 µg/mL (≈ 356 µM)
EC50 [18]: 11.7 nM
CC50 at 120 h [19]: 24.1 µM
half-life [20]: 63 min
bioavailability [21]: 32.1%
AUC(0-t) at 12 h [22]: 801 ng·h/mL
clearance [23]: 66.3 mL/min/kg
Ratio EC50 [24]: 8.4
EC50 [25]: 9.67 nM
IC50 [26]: 140 nM
selectivity ratio [27]: 2060
EC50 [28]: 6.09 nM
half-life [29]: 52.8 min
EC50 [30]: 2.85 nM

Cc1cc(/C=C/C#N)cc(C)c1Oc1nc(Nc2ccc(C#N)cc2)nc2c1COC2
IC50 [26]: 60 nM

Cc1cc(/C=C/C#N)cc(C)c1Oc1nc(Nc2ccc(N3CCC(NS(N)(=O)=O)C3)cc2)nc2c1COC2 (stereo not given)
IC50 [26]: 1060 nM

Cc1cc(/C=C/C#N)cc(C)c1Oc1nc(NC2CCN(Cc3ccc(S(N)(=O)=O)cc3)CC2)nc2c1COC2
EC50 [1]: 38 nM
EC50 [5]: 5.12 nM
EC50 [9]: 10.3 nM
EC50 [11]: 5.97 nM
selectivity ratio [16]: 2360
EC50 [18]: 24.7 nM
CC50 at 120 h [19]: 14.7 µM
EC50 [25]: 11.9 nM
IC50 [26]: 140 nM
selectivity ratio [27]: 595
EC50 [28]: 7.71 nM
EC50 [30]: 6.24 nM

Cc1cc(/C=C/C#N)cc(C)c1Oc1nc(Nc2ccc(N3CCCC(NS(N)(=O)=O)C3)cc2)nc2c1COC2 (stereo not given)
IC50 [26]: 780 nM

Cc1cc(/C=C/C#N)cc(C)c1Oc1nc(NC2CCN(c3ccc(N)cc3)CC2)nc2c1COC2
selectivity ratio [16]: 258
EC50 [18]: 249 nM
CC50 at 120 h [19]: 9.14 µM
IC50 [26]: 180 nM
selectivity ratio [27]: 37
EC50 [30]: 35.4 nM

Cc1cc(/C=C/C#N)cc(C)c1Oc1nc(NC2CCN(c3ccc(S(C)(=O)=O)cc3)CC2)nc2c1COC2
selectivity ratio [16]: 16500
EC50 [18]: 1200 nM
CC50 at 120 h [19]: 104 µM
IC50 [26]: 70 nM
selectivity ratio [27]: 87
EC50 [30]: 6.3 nM

Cc1cc(/C=C/C#N)cc(C)c1Oc1nc(NC2CCN(c3ccc(S(N)(=O)=O)cc3)CC2)nc2c1COC2
selectivity ratio [16]: 6530
EC50 [18]: 1300 nM
CC50 at 120 h [19]: 27.3 µM
IC50 [26]: 60 nM
selectivity ratio [27]: 23
EC50 [30]: 4.18 nM

Cc1cc(/C=C/C#N)cc(C)c1Oc1nc(Nc2ccc(N3CCCC(NS(C)(=O)=O)C3)cc2)nc2c1COC2 (stereo not given)
IC50 [26]: 1240 nM

Cc1cc(/C=C/C#N)cc(C)c1Nc1ccnc(Nc2ccc(C#N)cc2)n1 [RILPIVIRINE]
solubility [4]: < 1 µg/mL
solubility [10]: < 1 µg/mL

Cc1cc(C#N)cc(C)c1Oc1nc(Nc2ccc(C#N)cc2)nc(N)c1Br [ETRAVIRINE]
EC50 [1]: 48.7 nM
solubility [4]: < 1 µg/mL
EC50 [9]: 15.4 nM
solubility [10]: < 1 µg/mL
EC50 [11]: 4.65 nM
selectivity ratio [16]: > 1170
EC50 [18]: 72.3 nM
CC50 at 120 h [19]: > 4.59 µM
EC50 [25]: 21.4 nM
selectivity ratio [27]: > 64

Cc1cc(/C=C/C#N)cc(C)c1Oc1nc(Nc2ccc(N3CCN(S(N)(=O)=O)CC3)cc2)nc2c1COC2
IC50 [26]: 710 nM

Cc1cc(/C=C/C#N)cc(C)c1Oc1nc(NC2CCN(Cc3ccc([N+](=O)[O-])cc3)CC2)nc2c1COC2
EC50 [1]: 94 nM
EC50 [5]: 10.4 nM
EC50 [9]: 21.7 nM
EC50 [11]: 7.78 nM
selectivity ratio [16]: 801
EC50 [18]: 65 nM
CC50 at 120 h [19]: 6.67 µM
EC50 [25]: 60.5 nM
IC50 [26]: 180 nM
selectivity ratio [27]: 103
EC50 [28]: 26.8 nM
EC50 [30]: 8.32 nM

Cc1cc(/C=C/C#N)cc(C)c1Oc1nc(Nc2ccc(CN3CCN(S(N)(=O)=O)CC3)cc2)nc2c1COC2
IC50 [26]: 280 nM
